Results as given in PubChem BioAssay (NCI).
Values joined by “and” are separate entries in the source; they are usually repeats but may differ in a detail not shown here. Equal values may be shown once.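 96-well plates; 48 h exposure; 5 concentrations. Endpoints by linear interpolation between flanking doses. Not reached: highest tested concentration assigned. Here, GI50 denotes the concentration required for 50% inhibition of growth. The concentration for full growth arrest is given as TGI.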

Experiments:
Test in all cases: NCI-60 cell line screen, 48 h
[1] = test system: LOX IMVI melanoma
[2] = test system: OVCAR-5 ovarian
[3] = test system: M19-MEL melanoma
[4] = test system: A549 NSCLC
[5] = test system: SF-295 CNS
[6] = test system: KM12 colon
[7] = test system: HCC-2998 colon
[8] = test system: HCT-15 colon
[9] = test system: RXF-631 renal
[10] = test system: HCT-116 colon
[11] = test system: ACHN renal
[12] = test system: SF-539 CNS
[13] = test system: UO-31 renal
[14] = test system: SNB-75 CNS
[15] = test system: U251 CNS
[16] = test system: OVCAR-8 ovarian
[17] = test system: CAKI-1 renal
[18] = test system: 786-0 renal
[19] = test system: NCI-H460 lung
[20] = test system: SNB-19 CNS
[21] = test system: SR leukemia
[22] = test system: SF-268 CNS
[23] = test system: MOLT-4 leukemia
[24] = test system: NCI-H522 lung
[25] = test system: K-562 leukemia
[26] = test system: SK-MEL-2 melanoma
[27] = test system: NCI-H226 lung
[28] = test system: DMS 114 small cell lung
[29] = test system: SK-MEL-5 melanoma
[30] = test system: HOP-62 NSCLC
[31] = test system: IGROV1 ovarian
[32] = test system: RPMI-8226 leukemia
[33] = test system: M14 melanoma
[34] = test system: MALME-3M melanoma
[35] = test system: SN12C renal
[36] = test system: A498 renal
[37] = test system: HT29 colon
[38] = test system: DLD-1 colon
[39] = test system: DMS 273 small cell lung
[40] = test system: SK-OV-3 ovarian
[41] = test system: OVCAR-4 ovarian
[42] = test system: LXFL 529 NSCLC
[43] = test system: UACC-257 melanoma
[44] = test system: OVCAR-3 ovarian
[45] = test system: HL-60(TB) leukemia
[46] = test system: SK-MEL-28 melanoma
[47] = test system: SW-620 colon
[48] = test system: CCRF-CEM leukemia
[49] = test system: KM20L2 colon
[50] = test system: HOP-18 NSCLC
[51] = test system: HOP-92 NSCLC
[52] = test system: XF 498 CNS
[53] = test system: TK-10 renal
[54] = test system: UACC-62 melanoma
[55] = test system: NCI-H23 lung
[56] = test system: EKVX NSCLC
[57] = test system: RXF 393 renal

SMILES: CCN(CC)CCNc1ccc2nc(C)n3c4ccc(O)cc4c(=O)c1c23
- TGI [1]: 2040 nM
- TGI [2]: 8100 nM
- TGI [3]: 16800 nM
- TGI [4]: 1250 nM
- TGI [5]: 9810 nM
- TGI [6]: 17400 nM
- TGI [7]: 1990 nM
- TGI [8]: 5830 nM
- TGI [9]: 7510 nM
- TGI [10]: 10300 nM
- TGI [11]: 3780 nM
- TGI [12]: 16200 nM
- TGI [13]: 12100 nM
- TGI [14]: 14700 nM
- TGI [15]: 15800 nM
- TGI [16]: 3230 nM
- TGI [17]: 3600 nM
- TGI [18]: 10400 nM
- TGI [19]: 1830 nM
- TGI [20]: 3260 nM
- TGI [21]: 1320 nM
- TGI [22]: 12000 nM
- TGI [23]: 293 nM
- TGI [24]: 2240 nM
- TGI [25]: 13400 nM
- TGI [26]: 20300 nM
- TGI [27]: 2130 nM
- TGI [28]: 10400 nM
- TGI [29]: 15600 nM
- TGI [30]: 18800 nM
- TGI [31]: 15500 nM
- TGI [32]: 6180 nM
- TGI [33]: 16200 nM
- TGI [34]: 16400 nM
- TGI [35]: 12400 nM
- TGI [36]: 13300 nM
- TGI [37]: 1570 nM
- TGI [38]: 10500 nM
- TGI [39]: 3150 nM
- TGI [40]: 12600 nM
- TGI [41]: 3870 nM
- TGI [42]: 16500 nM
- TGI [43]: 21200 nM
- TGI [44]: 17100 nM
- TGI [45]: 2780 nM
- TGI [46]: 11300 nM
- TGI [47]: 1980 nM

SMILES: COc1cccc2c1C(=O)c1c(O)c3c(c(O)c1C2=O)C[C@@](O)(C(=O)CO)CC3OC1CC(NCCCC(OC(C)=O)OC(C)=O)C(O)C(C)O1 (stereo not given in full)
- TGI [1]: 0.743 nM
- GI50 [2]: 0.347 nM
- TGI [2]: 701 nM
- GI50 [48]: 0.104 nM
- TGI [48]: > 1000 nM
- GI50 [3]: < 0.1 nM
- TGI [3]: 0.323 nM
- GI50 [5]: < 0.1 nM
- TGI [5]: 0.645 nM
- GI50 [49]: < 0.1 nM
- TGI [49]: 167 nM
- GI50 [6]: < 0.1 nM
- TGI [6]: 0.187 nM
- GI50 [7]: 0.324 nM
- TGI [7]: 5.93 nM and 1.91 nM
- TGI [9]: 0.897 nM
- GI50 [12]: < 0.1 nM
- TGI [12]: 4.45 nM and 1.15 nM
- GI50 [50]: 5.07 nM
- TGI [13]: 4.27 nM
- GI50 [14]: < 0.1 nM
- TGI [14]: 4.03 nM and 0.406 nM
- GI50 [51]: 0.24 nM
- TGI [51]: 6.5 nM and 0.862 nM
- GI50 [16]: < 0.1 nM
- TGI [16]: 11.9 nM
- GI50 [52]: 0.1 nM
- GI50 [20]: 0.202 nM
- TGI [21]: 0.288 nM
- GI50 [23]: 0.123 nM
- GI50 [24]: < 0.1 nM
- TGI [24]: 3.46 nM and 0.412 nM
- GI50 [53]: 363 nM
- TGI [53]: > 1000 nM
- GI50 [25]: < 0.1 nM
- TGI [25]: 0.729 nM
- GI50 [26]: < 0.1 nM
- GI50 [54]: < 0.1 nM
- GI50 [55]: < 0.1 nM
- TGI [27]: 5.79 nM
- GI50 [28]: < 0.1 nM
- TGI [28]: 0.341 nM
- GI50 [29]: < 0.1 nM
- TGI [29]: 0.28 nM
- TGI [30]: 4.61 nM
- GI50 [31]: 0.754 nM
- TGI [31]: > 1000 nM
- GI50 [32]: < 0.1 nM
- TGI [32]: 0.403 nM
- GI50 [33]: < 0.1 nM
- TGI [34]: 4.52 nM
- GI50 [35]: < 0.1 nM
- TGI [35]: > 1000 nM
- TGI [36]: 6.09 nM
- GI50 [40]: 0.298 nM
- TGI [40]: > 1000 nM
- GI50 [41]: < 0.1 nM
- TGI [42]: 8.72 nM
- GI50 [56]: 0.305 nM
- TGI [56]: 6.18 nM and 1.19 nM
- GI50 [57]: 0.198 nM
- TGI [57]: 3.28 nM and 0.813 nM
- GI50 [43]: 0.314 nM
- TGI [43]: 7.39 nM and 1.44 nM
- TGI [45]: 5.8 nM
- TGI [46]: 7.87 nM
- GI50 [47]: < 0.1 nM
- TGI [47]: > 1000 nM
